PubChem BioAssay (NCI)
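Method: 48-hour compound exposure of cells in 96-well plates, five concentrations, linear interpolation of endpoints. At the GI50, growth is halved. The concentration for full growth arrest is given as TGI.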

Columns and labels:
Test in all cases: inhibition of tumour cell growth, NCI panel, 48 h
CAKI-1 renal = test system: CAKI-1 renal
SN12C renal = test system: SN12C renal
NCI-H226 lung = test system: NCI-H226 lung
LOX IMVI melanoma = test system: LOX IMVI melanoma
RPMI-8226 leukemia = test system: RPMI-8226 leukemia
SF-268 CNS = test system: SF-268 CNS
PC-3 prostate = test system: PC-3 prostate
U251 CNS = test system: U251 CNS
M14 melanoma = test system: M14 melanoma
UO-31 renal = test system: UO-31 renal
K-562 leukemia = test system: K-562 leukemia
A498 renal = test system: A498 renal
HOP-62 NSCLC = test system: HOP-62 NSCLC
OVCAR-8 ovarian = test system: OVCAR-8 ovarian
HCT-15 colon = test system: HCT-15 colon
MDA-MB-435 = test system: MDA-MB-435
HCC-2998 colon = test system: HCC-2998 colon
T-47D breast = test system: T-47D breast
SF-539 CNS = test system: SF-539 CNS
UACC-257 melanoma = test system: UACC-257 melanoma
NCI-H522 lung = test system: NCI-H522 lung
786-0 renal = test system: 786-0 renal
HOP-92 NSCLC = test system: HOP-92 NSCLC
HT29 colon = test system: HT29 colon
A549 NSCLC = test system: A549 NSCLC
IGROV1 ovarian = test system: IGROV1 ovarian
SW-620 colon = test system: SW-620 colon
NCI-H460 lung = test system: NCI-H460 lung
EKVX NSCLC = test system: EKVX NSCLC
SK-OV-3 ovarian = test system: SK-OV-3 ovarian
DU-145 prostate = test system: DU-145 prostate
SK-MEL-5 melanoma = test system: SK-MEL-5 melanoma
NCI-H23 lung = test system: NCI-H23 lung
MALME-3M melanoma = test system: MALME-3M melanoma
HS 578T breast = test system: HS 578T breast
BT-549 breast = test system: BT-549 breast
SNB-75 CNS = test system: SNB-75 CNS
OVCAR-4 ovarian = test system: OVCAR-4 ovarian
HL-60(TB) leukemia = test system: HL-60(TB) leukemia
SK-MEL-28 melanoma = test system: SK-MEL-28 melanoma
NCI/ADR-RES ovarian = test system: NCI/ADR-RES ovarian
COLO 205 colon = test system: COLO 205 colon
KM12 colon = test system: KM12 colon
HCT-116 colon = test system: HCT-116 colon
MDA-MB-231 breast = test system: MDA-MB-231 breast
TK-10 renal = test system: TK-10 renal
SF-295 CNS = test system: SF-295 CNS
OVCAR-5 ovarian = test system: OVCAR-5 ovarian
MCF7 breast = test system: MCF7 breast
MOLT-4 leukemia = test system: MOLT-4 leukemia
CCRF-CEM leukemia = test system: CCRF-CEM leukemia
SNB-19 CNS = test system: SNB-19 CNS

Work on `C#C[C@]1(O)CC[C@H]2[C@@H]3CC=C4c5sc(Nc6ccc(OC)nc6)nc5CC[C@]4(C)[C@H]3CC[C@@]21C` yielded a GI50 (CAKI-1 renal) of 1.28 µM, a TGI (CAKI-1 renal) of 3.76 µM and a GI50 (SN12C renal) of 2.22 µM. It also gave a TGI (SN12C renal) of 7.61 µM, a GI50 (NCI-H226 lung) of 2.02 µM and a TGI (NCI-H226 lung) of 13.4 µM. It also gave a GI50 (LOX IMVI melanoma) of 1.15 µM, a TGI (LOX IMVI melanoma) of 2.79 µM and a GI50 (RPMI-8226 leukemia) of 0.222 µM. The TGI (RPMI-8226 leukemia) was 1.19 µM, the GI50 (SF-268 CNS) was 2.01 µM and the TGI (SF-268 CNS) was 17.4 µM. The GI50 (PC-3 prostate) was 0.739 µM, the TGI (PC-3 prostate) was 4.92 µM and the GI50 (U251 CNS) was 0.654 µM. It also gave a TGI (U251 CNS) of 2.81 µM, a GI50 (M14 melanoma) of 1.47 µM and a TGI (M14 melanoma) of 3.47 µM. For the same compound, the GI50 (UO-31 renal) was 0.83 µM, the TGI (UO-31 renal) was 2.13 µM and the GI50 (K-562 leukemia) was 0.907 µM. It also gave a TGI (K-562 leukemia) of 12.8 µM, a GI50 (A498 renal) of 0.769 µM and a TGI (A498 renal) of 5.88 µM. For the same compound, the GI50 (HOP-62 NSCLC) was 1.66 µM, the TGI (HOP-62 NSCLC) was 8.8 µM and the GI50 (OVCAR-8 ovarian) was 1.8 µM. The TGI (OVCAR-8 ovarian) was 5.46 µM, the GI50 (HCT-15 colon) was 1.07 µM and the TGI (HCT-15 colon) was 8.28 µM. It also gave a GI50 (MDA-MB-435) of 1.84 µM, a TGI (MDA-MB-435) of 4.9 µM and a GI50 (HCC-2998 colon) of 1.7 µM. For the same compound, the TGI (HCC-2998 colon) was 3.81 µM, the GI50 (T-47D breast) was 1.47 µM and the TGI (T-47D breast) was 3.78 µM. For the same compound, the GI50 (SF-539 CNS) was 0.366 µM, the TGI (SF-539 CNS) was 2.15 µM and the GI50 (UACC-257 melanoma) was 1.55 µM. It also gave a TGI (UACC-257 melanoma) of 3.18 µM, a GI50 (NCI-H522 lung) of 1.43 µM and a TGI (NCI-H522 lung) of 3.02 µM. The GI50 (786-0 renal) was 0.413 µM, the TGI (786-0 renal) was 1.97 µM and the GI50 (HOP-92 NSCLC) was 1.03 µM. It also gave a TGI (HOP-92 NSCLC) of 2.95 µM, a GI50 (HT29 colon) of 1.31 µM and a TGI (HT29 colon) of 3.24 µM. The GI50 (A549 NSCLC) was 2.2 µM, the TGI (A549 NSCLC) was 18 µM and the GI50 (IGROV1 ovarian) was 2.04 µM. It also gave a TGI (IGROV1 ovarian) of 7.4 µM, a GI50 (SW-620 colon) of 1.49 µM and a TGI (SW-620 colon) of 3.4 µM. For the same compound, the GI50 (NCI-H460 lung) was 1.92 µM, the TGI (NCI-H460 lung) was 5.89 µM and the GI50 (EKVX NSCLC) was 1.6 µM. It also gave a TGI (EKVX NSCLC) of 21.3 µM, a GI50 (SK-OV-3 ovarian) of 1.26 µM and a TGI (SK-OV-3 ovarian) of 6.16 µM. It also gave a GI50 (DU-145 prostate) of 2.01 µM, a TGI (DU-145 prostate) of 10 µM and a GI50 (SK-MEL-5 melanoma) of 1.93 µM. It also gave a TGI (SK-MEL-5 melanoma) of 4.54 µM, a GI50 (NCI-H23 lung) of 1.65 µM and a TGI (NCI-H23 lung) of 4.47 µM. For the same compound, the GI50 (MALME-3M melanoma) was 1.54 µM, the TGI (MALME-3M melanoma) was 3.21 µM and the GI50 (HS 578T breast) was 0.231 µM. The TGI (HS 578T breast) was 1.61 µM, the GI50 (BT-549 breast) was 0.944 µM and the TGI (BT-549 breast) was 2.89 µM. It also gave a GI50 (SNB-75 CNS) of 0.37 µM, a TGI (SNB-75 CNS) of 3.9 µM and a GI50 (OVCAR-4 ovarian) of 3.51 µM. It also gave a TGI (OVCAR-4 ovarian) of over 100 µM, a GI50 (HL-60(TB) leukemia) of 0.493 µM and a TGI (HL-60(TB) leukemia) of 3.71 µM. It also gave a GI50 (SK-MEL-28 melanoma) of 1.5 µM, a TGI (SK-MEL-28 melanoma) of 3.72 µM and a GI50 (NCI/ADR-RES ovarian) of 2.36 µM. The TGI (NCI/ADR-RES ovarian) was over 100 µM, the GI50 (COLO 205 colon) was 1.78 µM and the TGI (COLO 205 colon) was 3.37 µM. The GI50 (KM12 colon) was 2.1 µM, the TGI (KM12 colon) was 12.2 µM and the GI50 (HCT-116 colon) was 1.13 µM. For the same compound, the TGI (HCT-116 colon) was 2.49 µM, the GI50 (MDA-MB-231 breast) was 1.71 µM and the TGI (MDA-MB-231 breast) was 9.34 µM. It also gave a GI50 (TK-10 renal) of 2.28 µM, a TGI (TK-10 renal) of 4.81 µM and a GI50 (SF-295 CNS) of 0.302 µM. For the same compound, the TGI (SF-295 CNS) was 1.23 µM, the GI50 (OVCAR-5 ovarian) was 2.49 µM and the TGI (OVCAR-5 ovarian) was 15.1 µM. It also gave a GI50 (MCF7 breast) of 0.789 µM, a TGI (MCF7 breast) of 2.54 µM and a GI50 (MOLT-4 leukemia) of 0.39 µM. For the same compound, the TGI (MOLT-4 leukemia) was 2.41 µM, the GI50 (CCRF-CEM leukemia) was 0.805 µM and the TGI (CCRF-CEM leukemia) was 6.24 µM. It also gave a GI50 (SNB-19 CNS) of 1.36 µM and a TGI (SNB-19 CNS) of 68.8 µM.
